From ChEMBL document CHEMBL1128493, “Synthesis and sigma binding properties of 2'-substituted 5,9 alpha-dimethyl-6,7-benzomorphans” (J Med Chem, 1995) come the findings set out here.

As usually defined, the Ki is a measure of affinity in units of concentration, obtained from inhibition or displacement. Low values mean higher affinity, high ones lower affinity.

SMILES strings stand for the structures.

A short description of experiment [1]: Binding affinity at Sigma receptor type 2 on rat liver membranes receptor by [3H]DTG displacement.
The nature of experiment [2]: Binding affinity measured on Sigma receptor type 1 from guinea pig brain membranes using [3H]pentazocine as radioligand.

Take `CC1C2Cc3ccc(O)cc3C1(C)CCN2Cc1ccccc1` (single isomer, unassigned; (+)): the results for the inhibition constant (Ki) in experiment [1] and in experiment [2] were 1710 nM and 0.67 nM, respectively.
